Patent US6653081B2, “Methods for monitoring antiretroviral therapy and guiding therapeutic decision in the treatment of HIV/AIDS” (ViroLogic, Inc., priority 2000, dated 2003)
Entries after “also recorded” stand apart in the source; their conditions may differ.

Tests used:
RTV-014397 = assay: Phenotypic susceptibility assay, RTV-014397; type: cell-based, HIV; conditions: patient 014397; for decrease in susceptibility: 245 and 103
Description: (§1) The resistance test vectors containing a functional luciferase gene cassette were constructed and host cells were transfected with the resistance test vector DNA. The resistant test vectors contained patient-derived reverse transcriptase and protease sequences that were either susceptible or resistant to the antiretroviral agents, such as nucleoside reverse transcriptase inhibitors, (NRTIs) non-nucleoside reverse transcriptase inhibitors […] protease inhibitors. The resistance test vector viral particles produced by transfecting the resistance test vector DNA into host cells, either in the presence or absence of PRIs, were used to infect target host cells grown either in the absence of NRTIs or NNRTIs, or in the presence of increasing concentrations of the drug. The amount of luciferase activity produced in infected target host cells in the presence of varying concentrations of drug was compared to the amount of luciferase produced in infected target host cells in the absence of drug. “Drug resistance” was measured as the amount of drug required to inhibit by 50% the luciferase activity detected in the absence of drug (inhibitory concentration 50%, IC50). The IC50 values were determined by plotting percent drug inhibition vs. log10 drug concentration. Stimulation of viral replication was measured as the percent increase in luciferase activity detected when infection occurs in the presence of drug as compared to in the absence of drug.
(§2) Host cells were seeded in 10-cm-diameter dishes and were transfected several days after plating with resistance test vector plasmid DNA and the envelope expression vector. Transfections were performed using a calcium-phosphate precipitation procedure. The cell culture media containing the DNA precipitate was replaced with fresh medium, from one to 24 hours, after transfection. Cell culture media containing resistance test vector viral particles was harvested one to four days after transfection and was passed through a […] filter before being used to infect target host cells, or being stored at −80° C. HIV capsid protein (p24) levels in the harvested cell culture media were determined by an EIA method as described by the manufacturer (SAIC; Frederick, Md.). Before infection, target cells (293 and 293/T) were plated in cell culture media. Control infections were performed using cell culture media from mock transfections (no DNA) or transfections containing the resistance test vector plasmid DNA without the envelope expression plasmid. One to three or more days after infection, the media was removed and cell lysis buffer (Promega) was added to each well. Cell lysates were assayed for luciferase activity (FIG. 3). The inhibitory effect of the drug was determined using the following equation:
(§3) % luciferase inhibition=1−(RLUluc[drug]÷RLUluc)×100
(§4) where RLUluc [drug] is the Relative Light Unit of luciferase activity in infected cells in the presence of drug, and RLUluc is the Relative Light Unit of luciferase activity in infected cells in the absence of drug. IC50values were obtained from the sigmoidal curves that were generated from the data by plotting the percent inhibition of luciferase activity vs. the log10 drug concentration. The percent luciferase stimulation is the negative of the % inhibition calculated using the formula above.
A resistance test vector was constructed as described in Example 1 from a virus sample obtained from patient 014397. The prior and current treatment regimens are unknown. Isolation of viral RNA and RT/PCR was used to generate a patient derived segment (PDS) that comprised viral sequences coding for all of PR and aa 1-313 of RT. The PDS were inserted into an indicator gene viral vector to generate a resistance test vector designated RTV-014397. RTV-014397 was then tested in a phenotypic assay to determine accurately and quantitatively the level of susceptibility to a panel of anti-retroviral drugs. […]

RTV-K103N = assay: Phenotypic susceptibility assay, RTV-K103N; type: cell-based, HIV-1; conditions: site-directed K103N alone
Description: as §1, §2, §3, §4
(§5) A resistance test vector containing a single mutation, K103N, (RTV-K103N) was constructed and tested in the phenotypic assay described earlier. The results were compared to those determined using a genetically defined resistance test vector that was wild type at positions 103. We determined the pattern of phenotypic susceptibility to the NNRTIs, delavirdine, nevirapine and efavirenz, in RTV-K103N.

RTV-1033-3/106V/227F = assay: Phenotypic susceptibility assay, RTV-1033-3/106V/227F; type: cell-based, HIV; conditions: RTV-1033-3 with V106A and F227L reverted
Description: as §1, §2, §3, §4
A resistance test vector containing all of the mutations present in RTV-1033-3 except for V106A and F227L (RTV-1033-3/106V/227F) was constructed and tested using the phenotypic assay described earlier. The results were compared to those determined using the parent RTV-1033-3. We determined the pattern of phenotypic susceptibility to the NNRTIs, delavirdine, nevirapine and efavirenz, in the reverted vector, RTV-1033-3/106V/227F.

RTV-V245E = assay: Phenotypic susceptibility assay, RTV-V245E; type: cell-based, HIV-1; conditions: site-directed V245E alone
Description: as §1, §2, §3, §4
as §5, with “V245E, (RTV-V245E)” for “K103N, (RTV-K103N)”, “position 245.” for “positions 103.”, “[…].” for “RTV-K103N.”

RTV-014451 = assay: Phenotypic susceptibility assay, RTV-014451; type: cell-based, HIV; conditions: patient 014451, week 32; for decrease in susceptibility: K101E, V106M, G190A on 241 backbone
Description: as §1, §2, §3, §4
Resistance test vectors were constructed as described in Example 1 from virus samples obtained from an individual patient at two separate time points separated by a 32-week period. The prior and current treatment regimens are unknown. Isolation of viral RNA and RT/PCR was used to generate patient derived segments (PDS) that comprised viral sequences coding for all of PR and aa […] of RT from […]. The PDS were inserted into an indicator gene viral vector to generate resistance test vectors designated RTV-014459 and RTV-014451. […]

RTV-I135T = assay: Phenotypic susceptibility assay, RTV-I135T; type: cell-based, HIV-1; conditions: site-directed I135T alone
Description: as §1, §2, §3, §4
as §5, with “I135T, (RTV-I135T)” for “K103N, (RTV-K103N)”, “position 135.” for “positions 103.”, “RTV-I135T.” for “RTV-K103N.”

RTV-1033-3 = assay: Phenotypic susceptibility assay, RTV-1033-3; type: cell-based, HIV; conditions: single clone from the RTV-1033 pool
Description: as §1, §2, §3, §4
A single clone (RTV-1033-3) was obtained from the patient-derived RTV pool that had mutations and phenotypic patterns of NNRTI susceptibility and drug-dependent stimulation of viral replication characteristic of the RTV-1033 pool. The RTV-1033-3 had the following mutations present in the revere transcriptase: V35I, D67N, T69D, K70R, V106A, D123G, V189L, T200A, I202T, H208Y, R211K, T215F, D218E, K219Q, H221Y, L228H, L283I, R284K, T286A, V293I and E297K.

| SMILES | drug-dependent stimulation of viral replication (RTV-014397) | decrease in susceptibility (RTV-014397) | drug-dependent stimulation of viral replication (RTV-K103N) | reductions in susceptibility compared to wild type control RTV (RTV-K103N) | drug-dependent stimulation of viral replication (RTV-1033-3/106V/227F) | reductions in susceptibility compared to wild type control RTV (RTV-1033-3/106V/227F) | drug-dependent stimulation of viral replication (RTV-V245E) | reductions in susceptibility compared to wild type control RTV (RTV-V245E) | drug-dependent stimulation of viral replication (RTV-014451) | decrease in susceptibility (RTV-014451) | drug-dependent stimulation of viral replication (RTV-I135T) | reductions in susceptibility compared to wild type control RTV (RTV-I135T) | drug-dependent stimulation of viral replication (RTV-1033-3) | reductions in susceptibility (RTV-1033-3) |
| --- | --- | --- | --- | --- | --- | --- | --- | --- | --- | --- | --- | --- | --- | --- |
| Cc1ccnc2c1NC(=O)c1cccnc1N2C1CC1 [nevirapine] | ~100% | > 600 fold | no drug-dependent stimulation | 67 fold | ~110% | 13 fold | no drug-dependent stimulation | no reductions; also recorded: no significant reduction | ~100% | > 600 fold | no drug-dependent stimulation | no reductions | 200% | > 600 fold |
| CC(C)Nc1cccnc1N1CCN(C(=O)c2cc3cc(NS(C)(=O)=O)ccc3[nH]2)CC1 [delavirdine] | ~100% | > 250 fold | no drug-dependent stimulation | 87 fold | ~80% | 6 fold | no drug-dependent stimulation | no reductions; also recorded: no significant reduction | ~90% | 41 fold | no drug-dependent stimulation | no reductions | 190% | 27 fold |
| O=C1Nc2ccc(Cl)cc2[C@@](C#CC2CC2)(C(F)(F)F)O1 [efavirenz] | ~70% | > 450 fold | no drug-dependent stimulation | 29 fold | ~80% | 6 fold | no drug-dependent stimulation | no reductions; also recorded: no significant reduction | ~70% | > 450 fold | no drug-dependent stimulation | no reductions | 180% | > 450 fold |
